Reference: patent publication US20080181866A1, “Amido Anti-viral Compounds” (Genelabs Technologies, Inc., priority 2006, published 2008)

What follows are compounds tested on HCV replication (assay: HCV replicon assay (luciferase) in ET (Huh-lucubineo-ET) cell line). Conditions: Hepatitis C virus, tested at 5 μM; ET replicon cells; luciferase activity measured 48-72 hours later; relative to no compound control.
Assay type: cell-based
Method in brief: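 Huh-lucubineo-ET cells stably carry a subgenomic replicon with a firefly luciferase–ubiquitin–neo fusion and adaptive NS3-5B mutations; they were seeded 24 h before compound addition (0.1 nM–50 μM, 0.5% DMSO). Luciferase was read 48–72 h later as % inhibition versus no-compound control, with parallel WST-1 cytotoxicity. EC50 and TC50 came from 10-point 2-fold dilutions fitted to a Hill equation.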
`O=C(Nc1ccc(CNS(=O)(=O)c2ccc(-c3ccccc3)cc2)cc1)[C@@H]1CSC(c2ccncc2)N1C(=O)OCc1ccccc1` (stereo in doubt) [Compound 7073, 4-{4-[(Biphenyl-4-sulfonylamino)-methyl]-phenylcarbamoyl}-2-pyridin-4-yl-thiazolidine-3-carboxylic acid benzyl ester] was tested, and the inhibition at 5 µM was 65.3%.
Compound `O=C(NC1CC1)c1ccc(-c2csc(NC(=O)[C@@H]3CSC(c4cncnc4)N3C(=O)OCc3ccccc3)n2)cc1` (mixture of isomers) [Compound 7022, (R)-4-[4-(4-Cyclopropylcarbamoyl-phenyl)-thiazol-2-ylcarbamoyl]-2-pyrimidin-5-yl-thiazolidine-3-carboxylic acid benzyl ester] has an inhibition at 5 µM of 100%.
In the case of `CC1(c2ccncc2)SC[C@@H](C(=O)Nc2nc(-c3ccc(C(=O)NC4CC4)cc3)cs2)N1C(=O)OCc1ccccc1` (stereo in doubt) [Compound 7096, 4-[4-(4-Cyclopropylcarbamoyl-phenyl)-thiazol-2-ylcarbamoyl]-2-methyl-2-pyridin-4-yl-thiazolidine-3-carboxylic acid benzyl ester], the inhibition at 5 µM is reported as 99.9%.
`CC(=O)N1CCCC(C2SC[C@@H](C(=O)Nc3nc(-c4ccc(C(=O)NC5CC5)cc4)cs3)N2C(=O)OCc2ccccc2)C1` (mixture of isomers) [Compound 7133, 2-(1-Acetyl-piperidin-3-yl)-4-[4-(4-cyclopropylcarbamoyl-phenyl)-thiazol-2-ylcarbamoyl]-thiazolidine-3-carboxylic acid benzyl ester] showed an inhibition at 5 µM of 100%.
Compound `CN(C)C(=O)CCC1SC[C@@H](C(=O)Nc2nc(-c3ccc(C(=O)NC4CC4)cc3)cs2)N1C(=O)OCc1ccccc1` (stereo partly drawn) [Compound 7118, 4-[4-(4-Cyclopropylcarbamoyl-phenyl)-thiazol-2-ylcarbamoyl]-2-(2-dimethylcarbamoyl-ethyl)-thiazolidine-3-carboxylic acid benzyl ester] has an inhibition at 5 µM of 99.9%.
`CC(C)(C)OC(=O)NCc1ccc(NC(=O)[C@@H]2CSC(c3ccncc3)N2C(=O)OCc2ccccc2)cc1` (stereo partly drawn) [Compound 7078, 4-[4-(tert-Butoxycarbonylamino-methyl)-phenylcarbamoyl]-2-pyridin-4-yl-thiazolidine-3-carboxylic acid benzyl ester] gave an inhibition at 5 µM of 35.6%.
`O=C(Cc1ccc(NC(=O)[C@@H]2CSC(c3ccncc3)N2C(=O)OCc2ccccc2)cc1)NC1CC1` (stereo partly drawn) [Compound 7068, 4-(4-Cyclopropylcarbamoylmethyl-phenylcarbamoyl)-2-pyridin-4-yl-thiazolidine-3-carboxylic acid benzyl ester] showed an inhibition at 5 µM of 6%.
`O=C(NC1CC1)c1ccc(-c2csc(NC(=O)[C@@H]3CSC(c4ccncc4)N3C(=O)OCc3ccccc3)n2)cc1` (mixture of isomers) [Compound 7031, (R)-4-[4-(4-Cyclopropylcarbamoyl-phenyl)-thiazol-2-ylcarbamoyl]-2-pyridin-4-yl-thiazolidine-3-carboxylic acid benzyl ester] showed an inhibition at 5 µM of 99.8%.
`COC(=O)CCC1SC[C@@H](C(=O)Nc2nc(-c3ccc(C(=O)NC4CC4)cc3)cs2)N1C(=O)OCc1ccccc1` (stereo partly drawn) [Compound 7121, 4-[4-(4-Cyclopropylcarbamoyl-phenyl)-thiazol-2-ylcarbamoyl]-2-(2-methoxycarbonyl-ethyl)-thiazolidine-3-carboxylic acid benzyl ester] gave an inhibition at 5 µM of 99.8%.
`O=C(NC1CC1)c1ccc(-c2csc(NC(=O)[C@@H]3CSC(c4cccc(F)c4)N3C(=O)OCc3ccccc3)n2)cc1` (mixture of isomers) [Compound 7048, (R)-4-[4-(4-Cyclopropylcarbamoyl-phenyl)-thiazol-2-ylcarbamoyl]-2-(3-fluoro-phenyl)-thiazolidine-3-carboxylic acid benzyl ester] was tested, and the inhibition at 5 µM was 99.3%.
In the case of `COCCNC(=O)c1ccc(NC(=O)[C@@H]2CSC(c3ccncc3)N2C(=O)OCc2ccccc2)cc1` (stereo in doubt) [Compound 7135, 4-[4-(2-Methoxy-ethylcarbamoyl)-phenylcarbamoyl]-2-pyridin-4-yl-thiazolidine-3-carboxylic acid benzyl ester], the inhibition at 5 µM is reported as 22.1%.
With `O=C(NC1CC1)c1ccc(-c2csc(NC(=O)[C@@H]3C[C@@H]4CCCC[C@@H]4N3C(=O)OCc3ccccc3)n2)cc1` [Compound 7043, (2S,3aS,7aS)-2-[4-(4-Cyclopropylcarbamoyl-phenyl)-thiazol-2-ylcarbamoyl]-octahydro-indole-1-carboxylic acid benzyl ester] the inhibition at 5 µM was 100%.
With `CN(C)c1ncc(C2SC[C@@H](C(=O)Nc3nc(-c4ccc(C(=O)NC5CC5)cc4)cs3)N2C(=O)OCc2ccccc2)cn1` (stereo in doubt) [Compound 7131, 4-[4-(4-Cyclopropylcarbamoyl-phenyl)-thiazol-2-ylcarbamoyl]-2-(2-dimethylamino-pyrimidin-5-yl)-thiazolidine-3-carboxylic acid benzyl ester] the inhibition at 5 µM was 100%.
Compound `CC(C)(C)OC(=O)N1CCCC(C2SC[C@@H](C(=O)Nc3nc(-c4ccc(C(=O)NC5CC5)cc4)cs3)N2C(=O)OCc2ccccc2)C1` (mixture of isomers) [Compound 7098, 3-{3-Benzyloxycarbonyl-4-[4-(4-cyclopropylcarbamoyl-phenyl)-thiazol-2-ylcarbamoyl]-thiazolidin-2-yl}-piperidine-1-carboxylic acid tert-butyl ester] has an inhibition at 5 µM of 99.9%.
In the case of `CCCC(C)C(=O)N1C(C2CCOCC2)SC[C@H]1C(=O)Nc1nc(-c2ccc(C(=O)NC3CC3)cc2)cs1` (stereo in doubt) [Compound 7103, 3-(2-Methyl-pentanoyl)-2-(tetrahydro-pyran-4-yl)-thiazolidine-4-carboxylic acid [4-(4-cyclopropylcarbamoyl-phenyl)-thiazol-2-yl]-amide], the inhibition at 5 µM is reported as 99.8%.
`O=C(NC1CC1)c1ccc(-c2csc(NC(=O)[C@@H]3CSC(CCCCC(=O)N4CCCCC4)N3C(=O)OCc3ccccc3)n2)cc1` (stereo in doubt) [Compound 7102, 4-[4-(4-Cyclopropylcarbamoyl-phenyl)-thiazol-2-ylcarbamoyl]-2-(5-oxo-5-piperidin-1-yl-pentyl)-thiazolidine-3-carboxylic acid benzyl ester] was tested, and the inhibition at 5 µM was 100%.
In the case of `COC(=O)c1ccc(C2SC[C@@H](C(=O)Nc3nc(-c4ccc(C(=O)NC5CC5)cc4)cs3)N2C(=O)OCc2ccccc2)cc1` (mixture of isomers) [Compound 7051, (R)-4-[4-(4-Cyclopropylcarbamoyl-phenyl)-thiazol-2-ylcarbamoyl]-2-(4-methoxycarbonyl-phenyl)-thiazolidine-3-carboxylic acid benzyl ester], the inhibition at 5 µM is reported as 99.4%.
Work on `O=C(Nc1ccccc1)c1ccc(NC(=O)[C@@H]2CSC(c3ccncc3)N2C(=O)OCc2ccccc2)cc1` (stereo partly drawn) [Compound 7076, 4-(4-Phenylcarbamoyl-phenylcarbamoyl)-2-pyridin-4-yl-thiazolidine-3-carboxylic acid benzyl ester] yielded an inhibition at 5 µM of 3.9%.
`O=C(Cc1cccc(NC(=O)[C@@H]2CSC(c3ccncc3)N2C(=O)OCc2ccccc2)c1)NCc1ccccc1` (stereo partly drawn) [Compound 7116, 4-[3-(Benzylcarbamoyl-methyl)-phenylcarbamoyl]-2-pyridin-4-yl-thiazolidine-3-carboxylic acid benzyl ester] was tested, and the inhibition at 5 µM was 84.9%.
`Cn1ccnc1C1SC[C@@H](C(=O)Nc2nc(-c3ccc(C(=O)NC4CC4)cc3)cs2)N1C(=O)OCc1ccccc1` (mixture of isomers) [Compound 7053, (R)-4-[4-(4-Cyclopropylcarbamoyl-phenyl)-thiazol-2-ylcarbamoyl]-2-(1-methyl-1H-imidazol-2-yl)-thiazolidine-3-carboxylic acid benzyl ester] gave an inhibition at 5 µM of 99.6%.
For `O=C(Nc1ccc(CNS(=O)(=O)c2ccccc2)cc1)[C@@H]1CSC(c2ccncc2)N1C(=O)OCc1ccccc1` (stereo partly drawn) [Compound 7111, 4-[4-(Benzenesulfonylamino-methyl)-phenylcarbamoyl]-2-pyridin-4-yl-thiazolidine-3-carboxylic acid benzyl ester], the inhibition at 5 µM was 43%.
